Results as given in article PMC8231654, “Evaluation of Cytotoxic and Mutagenic Effects of the Synthetic Cathinones Mexedrone, α-PVP and α-PHP” (International Journal of Molecular Sciences, 2021).
Where two headings read alike, the source gives them in different places.

Columns and labels:
[1] = cited from earlier work; for mutagenic potential: psychoactive phenethylamines; for mutagenic capacity in terms of increasing the frequency of MNi: synthetic cannabinoids, first study of 2020
TK6 cells [2] = assay: Cytostasis analysis (Relative Population Doubling); assay type: cell-based, human; details: 26 h; for Relative Population Doubling (RPD): mean ± SEM; for Cytostatic effect / RPD versus OECD threshold (55 ± 5%): all concentrations up to 100 µM
Experimental: In parallel, always using the Guava ViaCount Reagent, the number of cells seeded at time 0 and the one measured at the end of the treatment time were used to check the correct replication and to calculate the Population Doublings (PD) values. Subsequently, the PD obtained in the control cultures was compared to that measured in the treated cultures obtaining the Relative Population Doublings (RPD). PD and RPD were calculated with the following formulas:(1) PD=logpost−initial cell number/initial cell number÷log2 (2) RPD=PD in treated cultures/PD in control cutures x 100
Similarly, to cytotoxicity, the cytostasis was checked, in order to verify that cell proliferation respected the threshold established by OECD guideline (55 ± 5%).

TK6 cells [3] = assay: Apoptosis analysis (Guava Nexin assay); assay type: cell-based, human; details: 26 h, all selected concentrations
Experimental: The percentage of apoptotic cells was evaluated by the Guava Nexin Assay according to the procedure by Lenzi et al. and Cocchi et al..
The reagent contains the 7-aminoactinomycin D (7- AAD), a cells non-permeant dye that allows the discrimination between live and dead cells, and the Annexin-V-PE that allows the identification of apoptotic cells by binding to the phosphatidylserine on the cell surface.
100 μL of reagent was added to 100 μL of cell suspension (~1 × 10^5 cells) and incubated for 20 min at RT. Then, a total of 2000 events were acquired and analyzed by Guava Nexin software.
The apoptotic cell percentages recorded in the cultures treated with synthetic cathinones different concentrations were normalized on those recorded in the untreated control cultures, accounted equal to 1 and expressed as apoptotic fold increase.

TK6 cells [4] = assay: In vitro micronucleus test by flow cytometry, without S9 mix; assay type: cell-based, human; details: 26 h, 75 and 100 µM
Experimental: (§1) The analysis of the MNi frequency was performed using an automated protocol published by Lenzi et al..
(§2) A total of 10,000 nuclei, derived from viable and proliferating cells, and the corresponding number of MNi were acquired and analyzed by Guava Incyte software. The discrimination between nuclei and MNi occurs on the basis of the different size and intensity of green fluorescence.
(§3) The MNi frequency (number of MNi/10,000 nuclei) recorded in treated cultures were normalized on those recorded in the concurrent negative control cultures, accounted equal to 1 and expressed as MNi frequency fold increase.
(§4) We used the clastogen MMC and the aneuploidogen VINB as positive controls in absence of S9 mix, while CP, a clastogen agent requiring metabolic activation, in presence of S9 mix.

TK6 cells [5] = assay: In vitro micronucleus test by flow cytometry, with S9 mix; assay type: cell-based, human; details: 3 h + S9 mix, 23 h recovery, 75 and 100 µM
Experimental: as §1, §2, §3
The exogenous metabolic activation system employed is a co-factor-supplemented post-mitochondrial fraction (S9 mix) prepared from the livers of rats treated with enzyme-inducing agent Aroclor 1254. The final concentration of S9 in the culture medium was 0.75%.
as §4

DAT = tested on: DAT; design: method as in PMID 27524685; details: monoamine uptake, rats' brain synaptosomes; cited from earlier work
NET = tested on: NET; design: method as in PMID 27524685; details: monoamine uptake, rats' brain synaptosomes; cited from earlier work
SERT [6] = tested on: SERT; design: method as in PMID 27524685; details: monoamine uptake, rats' brain synaptosomes; cited from earlier work
SERT [7] = tested on: SERT; design: method as in PMID 27524685; details: rats' brain synaptosomes; read-out: releasing activity on SERT EC50; cited from earlier work
TK6 cells [8] = assay: Cytotoxicity analysis (Guava ViaCount, cell viability); details: 26 h, 25-100 µM
rats = details: in rats; cited from earlier work
mice = details: in mice; cited from earlier work
[9] = tested on: dopamine transporter (DAT); design: method as in PMID 25624004, PMID 27799294; details: reuptake inhibition, human embryonic kidney 293 cells; cited from earlier work
[10] = tested on: norepinephrine transporter (NET); design: method as in PMID 25624004, PMID 27799294; details: reuptake inhibition, human embryonic kidney 293 cells; cited from earlier work
[11] = tested on: serotonin transporter (SERT); design: method as in PMID 25624004, PMID 27799294; details: human embryonic kidney 293 cells; cited from earlier work
[12] = tested on: dopamine (DAT), norepinephrine (NET), and serotonin (SERT) transporters; design: method as in PMID 25624004, PMID 27799294; details: human embryonic kidney 293 cells; cited from earlier work
C2C12 myoblasts = tested on: C2C12 myoblasts; design: method as in PMID 30925718; details: 24 h, concentrations 10 to 20 times higher than in this paper; cited from earlier work
[13] = design: method as in PMID 23797910, PMID 26014283, PMID 27142261; details: in vitro studies; cited from earlier work
[14] = design: method as in PMID 26505776, PMID 29963212, PMID 33379373; details: human urine of a drug abuser; cited from earlier work

COc1cc(CCNCc2ccccc2OC)c(OC)cc1Br [25B-NBOMe]
mutagenic potential [1]: proved to be mutagen

O=C(Oc1cccc2cccnc12)c1cn(CC2CCCCC2)c2ccccc12 [BB-22]
mutagenic capacity in terms of increasing the frequency of MNi [1]: mutagenic capacity

CNC(COC)C(=O)c1ccc(C)cc1 (stereo not shown) [Mexedrone, 3-methoxy-2-(methylamino)-1-(4-methylphenyl)propan-1-one]
Relative Population Doubling (RPD) (TK6 cells [2]; 25 µM): 97.0% ± 3.2 | Relative Population Doubling (RPD) (TK6 cells [2]; 35 µM): 92.0% ± 4.2 | Relative Population Doubling (RPD) (TK6 cells [2]; 50 µM): 88.4% ± 7.9 | Relative Population Doubling (RPD) (TK6 cells [2]; 75 µM): 95.2% ± 3.5 | Relative Population Doubling (RPD) (TK6 cells [2]; 100 µM): 90.1% ± 3.6 | Cytostatic effect / RPD versus OECD threshold (55 ± 5%) (TK6 cells [2]): do not induce any cytotoxic or cytostatic effects | Apoptosis fold increase versus negative control (TK6 cells [3]): never reached a doubling | MNi frequency fold increase versus negative control (TK6 cells [4]): significant increase of the MNi frequency at both the concentrations tested | MNi frequency fold increase versus negative control (TK6 cells [5]): statistically significant increase at both concentrations tested | IC50 (DAT): ~6.8 µM | IC50 (NET): ~8.8 µM | IC50 (SERT [6]): ~5.2 µM | EC50 (SERT [7]): 2.5 µM | Cell viability / cytotoxic effect versus negative control and OECD threshold (55 ± 5%) (TK6 cells [8]): do not induce any cytotoxic or cytostatic effects

COc1cc(CCN)c(OC)cc1I [2C-I]
mutagenic potential [1]: proved to be mutagen

CNC(C)C(=O)c1ccc(C)cc1 (stereo not shown) [mephedrone, 4-methyl-N-methyl cathinone]
mutagenicity (rats): mutagenicity demonstrated

COc1ccc(OC)c(CCN)c1 [2C-H]
mutagenic potential [1]: proved to be mutagen

COc1cc(CCN)c(OC)cc1Br [2C-B]
mutagenic potential [1]: proved to be mutagen

C[C@H](N)C(=O)c1ccccc1 [cathinone]
mutagenicity (mice): mutagenicity demonstrated

CCCC(C(=O)c1ccccc1)N1CCCC1 (stereo not drawn) [α-PVP, alpha-pyrrolidinopentiophenone]
Relative Population Doubling (RPD) (TK6 cells [2]; 25 µM): 91.5% ± 5.9 | Relative Population Doubling (RPD) (TK6 cells [2]; 35 µM): 88.4% ± 6.8 | Relative Population Doubling (RPD) (TK6 cells [2]; 50 µM): 88.7% ± 7.1 | Relative Population Doubling (RPD) (TK6 cells [2]; 75 µM): 89.9% ± 4.6 | Relative Population Doubling (RPD) (TK6 cells [2]; 100 µM): 87.6% ± 6.3 | Cytostatic effect / RPD versus OECD threshold (55 ± 5%) (TK6 cells [2]): do not induce any cytotoxic or cytostatic effects | Apoptosis fold increase versus negative control (TK6 cells [3]): never reached a doubling | MNi frequency fold increase versus negative control (TK6 cells [4]): no statistically significant increase | MNi frequency fold increase versus negative control (TK6 cells [5]): significant increase in MNi frequency at both concentrations tested | IC50 [9]: 0.04 µM | IC50 [10]: 0.02 µM | IC50 [11]: > 10 µM | neurotransmitters release [12]: do not enhance neurotransmitters release | mitochondrial superoxide production (C2C12 myoblasts): statistically significant increase in mitochondrial superoxide production | number of phase I metabolites identified [13]: 6 | Cell viability / cytotoxic effect versus negative control and OECD threshold (55 ± 5%) (TK6 cells [8]): do not induce any cytotoxic or cytostatic effects

O=C(NC12CC3CC(CC(C3)C1)C2)c1cn(CCCCCF)c2ccccc12 [STS-135]
mutagenic capacity in terms of increasing the frequency of MNi [1]: mutagenic capacity

CCCCC(C(=O)c1ccccc1)N1CCCC1 (stereo not drawn) [α-PHP, alpha-pyrrolidinohexanophenone]
Relative Population Doubling (RPD) (TK6 cells [2]; 25 µM): 88.3% ± 1.3 | Relative Population Doubling (RPD) (TK6 cells [2]; 35 µM): 94.4% ± 1.7 | Relative Population Doubling (RPD) (TK6 cells [2]; 50 µM): 96.8% ± 3.2 | Relative Population Doubling (RPD) (TK6 cells [2]; 75 µM): 85.2% ± 3.5 | Relative Population Doubling (RPD) (TK6 cells [2]; 100 µM): 85.9% ± 5.6 | Cytostatic effect / RPD versus OECD threshold (55 ± 5%) (TK6 cells [2]): do not induce any cytotoxic or cytostatic effects | Apoptosis fold increase versus negative control (TK6 cells [3]): never reached a doubling | MNi frequency fold increase versus negative control (TK6 cells [4]): no statistically significant increase | MNi frequency fold increase versus negative control (TK6 cells [5]): statistically significant increase was observed only at the highest concentration tested | IC50 [9]: 0.02 µM | IC50 [10]: 0.04 µM | IC50 [11]: > 10 µM | neurotransmitters release [12]: do not enhance neurotransmitters release | number of glucuronide conjugates identified [14]: 9 | number of phase I metabolites identified [14]: 19 | Cell viability / cytotoxic effect versus negative control and OECD threshold (55 ± 5%) (TK6 cells [8]): do not induce any cytotoxic or cytostatic effects

CCCCCn1nc(C(=O)OC23CC4CC(CC(C4)C2)C3)c2ccccc21 [APINAC]
mutagenic capacity in terms of increasing the frequency of MNi [1]: mutagenic capacity
